According to the supplement of paper PMC10307832:

Columns and labels:
Assay in all cases: relative viability (nuclei count vs DMSO), 5 days (fraction); higher = more cells survive
[1] = compound: NC(=O)[C@@H](CCC(F)(F)F)N(Cc1ccc(-c2ncon2)cc1F)S(=O)(=O)c1ccc(Cl)cc1 [Avagacestat] + CC(=O)c1c(C)c2cnc(Nc3ccc(N4CCNCC4)cn3)nc2n(C2CCCC2)c1=O [Palbociclib] (partner 0.5 µM)
How it was run: (§1)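 Relative viability equals treated-well nuclei counts divided by vehicle-well nuclei counts. Counts came from 4× images of lung cancer cell lines grown in 1536-well plates for 5 days after pin-tool dosing on the day after seeding. Dosing used one drug alone or a fixed anchor-drug dose plus five library-drug doses (not always all listed) in √10 steps, and values are medians of duplicate plates.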

Avagacestat + Luminespib = compound: NC(=O)[C@@H](CCC(F)(F)F)N(Cc1ccc(-c2ncon2)cc1F)S(=O)(=O)c1ccc(Cl)cc1 [Avagacestat] + CCNC(=O)c1noc(-c2cc(C(C)C)c(O)cc2O)c1-c1ccc(CN2CCOCC2)cc1 [Luminespib] (partner 0.01 µM)
How it was run: as §1

Avagacestat + OSI-027 = compound: NC(=O)[C@@H](CCC(F)(F)F)N(Cc1ccc(-c2ncon2)cc1F)S(=O)(=O)c1ccc(Cl)cc1 [Avagacestat] + COc1cccc2cc(-c3nc([C@H]4CC[C@H](C(=O)O)CC4)n4ncnc(N)c34)[nH]c12 [OSI-027] (partner 0.5 µM)
How it was run: as §1

Avagacestat + Pictilisib = compound: NC(=O)[C@@H](CCC(F)(F)F)N(Cc1ccc(-c2ncon2)cc1F)S(=O)(=O)c1ccc(Cl)cc1 [Avagacestat] + CS(=O)(=O)N1CCN(Cc2cc3nc(-c4cccc5[nH]ncc45)nc(N4CCOCC4)c3s2)CC1 [Pictilisib] (partner 1 µM)
How it was run: as §1

Cell Line	relative viability ([1]; first compound 0.08 µM)	relative viability ([1]; first compound 0.253 µM)	relative viability ([1]; first compound 0.8 µM)	relative viability ([1]; first compound 2.53 µM)	relative viability ([1]; first compound 8 µM)	relative viability (Avagacestat + Luminespib; first compound 0.08 µM)	relative viability (Avagacestat + Luminespib; first compound 0.253 µM)	relative viability (Avagacestat + Luminespib; first compound 0.8 µM)	relative viability (Avagacestat + Luminespib; first compound 2.53 µM)	relative viability (Avagacestat + Luminespib; first compound 8 µM)	relative viability (Avagacestat + OSI-027; first compound 0.08 µM)	relative viability (Avagacestat + OSI-027; first compound 0.253 µM)	relative viability (Avagacestat + OSI-027; first compound 0.8 µM)	relative viability (Avagacestat + OSI-027; first compound 2.53 µM)	relative viability (Avagacestat + OSI-027; first compound 8 µM)	relative viability (Avagacestat + Pictilisib; first compound 0.08 µM)	relative viability (Avagacestat + Pictilisib; first compound 0.253 µM)	relative viability (Avagacestat + Pictilisib; first compound 0.8 µM)	relative viability (Avagacestat + Pictilisib; first compound 2.53 µM)	relative viability (Avagacestat + Pictilisib; first compound 8 µM)
NCI-H2228	0.783	0.819	0.947	0.911	0.595	0.221	0.117	0.179	0.132	0.108	0.849	0.455	0.57	0.503	0.504	0.431	0.498	0.556	0.346	0.349
UMC-11	0.325	0.312	0.323	0.315	0.34	1.18	1.35	1.1	1.16	1.14	0.52	0.454	0.503	0.461	0.465	0.966	0.747	0.964	0.844	0.867
NCI-H441	0.242	0.214	0.249	0.229	0.218	0.441	0.403	0.327	0.361	0.301	0.859	0.72	0.704	0.589	0.462	0.54	0.515	0.496	0.442	0.415
EKVX	0.392	0.374	0.405	0.365	0.293	0.798	0.973	0.859	0.809	0.751	0.675	0.687	0.72	0.461	0.659	0.443	0.528	0.523	0.393	0.435
NCI-H1755	0.444	0.438	0.492	0.389	0.463	0.72	0.55	0.418	0.697	0.386	0.816	0.748	0.742	0.654	0.579	0.487	0.445	0.445	0.428	0.367
ABC-1	0.846	0.542	0.67	0.654	0.522	0.387	0.583	0.801	0.359	0.555	0.442	0.537	0.637	0.401	0.418	1	0.753	0.861	0.679	0.711
NCI-H647	0.456	0.497	0.486	0.341	0.35	0.184	0.148	0.146	0.15	0.12	0.552	0.773	0.575	0.559	0.572	0.487	0.504	0.459	0.41	0.372
EPLC-272H	0.368	0.344	0.327	0.32	0.291	0.21	0.267	0.139	0.153	0.304	0.274	0.259	0.326	0.226	0.28	0.325	0.273	0.346	0.371	0.241
NCI-H460	0.128	0.104	0.14	0.146	0.131	0.0352	0.0325	0.0362	0.0361	0.0325	0.953	1.19	0.752	0.551	0.418	0.425	0.361	0.454	0.441	0.365
NCI-H1915	0.513	0.522	0.477	0.502	0.519	1.07	1.18	1.01	0.745	0.669	0.744	0.639	0.596	0.582	0.568	0.962	1.05	0.949	1	0.93
NCI-H2009	0.201	0.202	0.214	0.215	0.199	1.13	1.03	1.2	1.04	0.901	0.708	0.749	0.662	0.579	0.563	0.986	0.946	0.983	0.808	0.778
NCI-H650	0.313	0.361	0.314	0.275	0.308	0.91	0.965	0.92	0.831	0.818	0.638	0.472	0.576	0.573	0.445	0.768	0.989	1.03	1.07	0.82
NCI-H1793	0.348	0.324	0.331	0.263	0.316	0.145	0.176	0.157	0.198	0.172	0.327	0.338	0.373	0.233	0.249	0.381	0.325	0.326	0.413	0.27
NCI-H1650	0.318	0.241	0.406	0.331	0.351	0.222	0.203	0.212	0.202	0.193	0.49	0.671	0.643	0.782	0.67	0.693	0.577	0.552	0.542	0.476
